Test system: MC3T3 H1 osteoblasts
Test: Adhesion of MC3T3 H1 osteoblasts to V4A stainless steel shaped articles coated with acrylate peptide 3
Assay type: cell-based, mouse
Conditions: for maximum adhesion rates: V4A stainless steel
Description: For testing the cell adhesion of osteoblasts to peptide-coated metal surfaces, V4A stainless steel shaped articles (7×7×1 mm^3) were provided with three different coating variants and in each case then coated in turn with RGD peptides. To do this, first the stainless steel shaped articles were incubated in an ultrasonic bath at 60° C. for 15 min for the purpose of cleaning, rinsed with demineralized water, incubated in acetone for 30 min, rinsed again with demineralized water and incubated at 60° C. for 24 hours for drying.
The stainless steel platelets were then coated by means of three variants:
The Kevloc® primer solution was thinly applied and incubated at room temperature for 3 min. Then the Kevloc® bond solution was likewise thinly applied and activated in a kiln at 180° C. for 20 min.
Since this coating variant directly makes available free acrylate radicals on the metal surface, it was then possible to directly covalently couple the acrylate peptide 3, types iiia, as was described in Example 3 for polymerized PMMA-bone cement.
The Siliseal® solution was thinly applied and dried at room temperature for 5 min. Then the Sililink solution was likewise thinly applied and activated in the kiln at 320° C. for 3 min.
To make available acrylate radicals on the coated metal surfaces, the pretreated stainless steel shaped articles were immersed in demineralized water heated to 75° C., adjusted to pH about 8.00 using NaOH. A 1% 3-methacryloxypropyltrimethoxysilane solution (Huls AG, Germany) was then metered in with strirring over a period of one hour until a pH of about 6.50 was achieved. The mixture was then stirred at 75° C. for one hour; the pH at this time was about 6.35.
The bonding of acrylate peptide 3, type iiia, was carried out as described in Example 3 for polymerized PMMA bone cement.
For this, the stainless steel shaped articles were immersed in demineralized water heated to 75° C., adjusted to pH about 8.00 using NaOH, and an AlCl3 solution was metered in with stirring over a period of two hours. Then a 5% sodium silicate solution was likewise metered in with stirring over two hours. In the following step, a 1% 3-methacryloxypropyltrimethoxysilane solution (Huls AG, Germany) was metered in with stirring in the course of one hour. The mixture was then stirred at 75° C. for one hour; the pH was at this time about 6.40.
After the stainless steel shaped articles had been coated with acrylate peptide 3, type iiia, by means of three different processes, the adhesion of osteoblasts of the line MC3T3 H1 was investigated. To do this, a procedure as described in Example 3 was used.

For “cyclo(RGDf[acrylic-ahx-tEG-K]) [acrylate peptide 3]”, the maximum adhesion rates (Kevloc process) was “about 80%”, the maximum adhesion rates (Silicoater process) was “about 80%” and the maximum adhesion rates (pigment coating) was “about 60%”. The EC50 (all three coating variants, read-out: half-maximal cell bindings, RGD peptide concentration in the coating solution) was 0.001 to 0.1 µM.

— patent US6280760A, “Peptide-coated implants and methods for producing same” (Merck Patent Gesellschaft mit beschraenkter Haftung, priority 1997, dated 2001)
